Measured values published in patent US9801381B2, “Form of rimsulfuron, a process for its preparation and use of the same” (ROTAM AGROCHEM INTERNATIONAL COMPANY LIMITED, priority 2015, dated 2017).
Like-named read-outs stand apart in the source and are kept apart here.

How the values were obtained:
[1] = assay type: physicochemical; conditions: pH 7 buffer, test temperature e.g. 20° C.
[2] = Cleanout test (rimsulfuron residue in polyethylene bottles after rinsing, extracted with acetonitrile); assay type: physicochemical; conditions: for Cleanout rating, % (concentration of rimsulfuron herbicide in the acetonitrile solution): dispersed in tap water, stood overnight, lower rating = more effective cleanout
Experimental: The cleanout test was conducted by dispersing in water a sample to produce a concentration that is normally used when applying the herbicide: 25% rimsulfuron. The sample was added to tap water (300 mL) in a 400 mL beaker and magnetically stirred for 2 minutes. The mixture was then stirred for 2 minutes, whereupon the resulting dispersion was dispensed in three 100 mL aliquots to 4-oz (118 mL) polyethylene bottles. The bottles were capped, inverted twice and allowed to stand overnight.
After standing overnight, each individual bottle was inverted twice and the liquid contents were then poured out. Tap water (10 mL) was added and the bottle was inverted until all sediment was re-suspended, whereupon the contents were poured out. Tap water (100 mL) was added and the bottle was inverted twice and then allowed to stand undisturbed for 10 minutes. The bottle was inverted twice more and the contents were poured out. Acetonitrile (10 mL) was added to the bottle to extract any remaining material. The acetonitrile solution was analyzed by reversed-phase liquid chromatography with UV detection. The cleanout rating (the concentration of rimsulfuron herbicide in the acetonitrile solution) is reported in % in Table 6 below.

[3] = assay type: physicochemical
Experimental: A stock pH 7 buffer solution was prepared by adding aqueous sodium hydroxide solution (0.1 M, 145 mL) to aqueous potassium dihydrogen phosphate solution (0.1 M, 250 mL), and then adding sufficient distilled water to adjust the final volume to 500 mL. At least 1 time and up to about 5 times the amount of rimsulfruon needed for saturation was added to a mixing vessel containing stock buffer solution at the test temperature (e.g., 20° C.). The mixture was magnetically stirred in the dark while being maintained at the test temperature. Samples were periodically removed for analysis. The samples were centrifuged using a high speed, temperature-controlled centrifuge at the test temperature for about 20 minutes at ≧12000 G to remove suspended particles. An aliquot of each supernatant was taken for analysis. The concentration of rimsulfuron in the supernatant was determined by a high pressure liquid chromatography (HPLC) with a reversed phase chromatography column and UV detection. The method should include development of best-fit calibration curves based on at least three standards using linear regression analysis Samples were successively withdrawn from the mixing vessel and analyzed until three successive samples show little or no variation in concentration. The test is preferably replicated to ensure accuracy.

[4] = OD formulation, original concentration 40%
[5] = SG formulation, original concentration 25%
[6] = WG formulation, original concentration 25%

CCS(=O)(=O)c1cccnc1S(=O)(=O)NC(=O)Nc1nc(OC)cc(OC)n1 [Amorphous Rimsulfuron, prepared in Example 1] [1-(4,6-dimethoxypyrimidin-2-yl)-3-(3-ethylsulfonyl-2-pyridylsulfonyl)urea, reference compound]
Concentration measured by HPLC after treatment, % [1, 4]: 14% | Concentration measured by HPLC after treatment, % [1, 5]: 15% | Concentration measured by HPLC after treatment, % [1, 6]: 12% | Cleanout rating, % (concentration of rimsulfuron herbicide in the acetonitrile solution) ([2]; OD formulation): 26% | Cleanout rating, % (concentration of rimsulfuron herbicide in the acetonitrile solution) ([2]; SG formulation): 10% | Cleanout rating, % (concentration of rimsulfuron herbicide in the acetonitrile solution) ([2]; WG formulation): 13%

CCS(=O)(=O)c1cccnc1S(=O)(=O)NC(=O)Nc1nc(OC)cc(OC)n1 [Rimsulfuron, crystal form A, 98%, prepared in Example 2] [1-(4,6-dimethoxypyrimidin-2-yl)-3-(3-ethylsulfonyl-2-pyridylsulfonyl)urea]
Solubility compared with amorphous rimsulfuron (in words) [3]: significant increase in its solubility | Concentration measured by HPLC after treatment, % [1, 4]: 35% | Concentration measured by HPLC after treatment, % [1, 5]: 24.9% | Concentration measured by HPLC after treatment, % [1, 6]: 23% | Cleanout rating, % (concentration of rimsulfuron herbicide in the acetonitrile solution) ([2]; OD formulation): 5% | Cleanout rating, % (concentration of rimsulfuron herbicide in the acetonitrile solution) ([2]; SG formulation): 0.1% | Cleanout rating, % (concentration of rimsulfuron herbicide in the acetonitrile solution) ([2]; WG formulation): 2% | Cleanout properties compared with the known amorphous rimsulfuron product (in words) ([2]; summary of Table 6): markedly superior cleanout properties
